{"source": "patent US6395740B1", "about": "“Calcitonin mimetics” (ZymoGenetics, Inc., priority 1997, dated 2002)", "key": {"[1]": {"tested_on": "PTH-induced bone resorption in mouse calvaria", "test": "Calvarial assay to determine calcitonin escape", "assay_type": "cell-based", "conditions": "for visual observation of the calvaria (resorption): final time point (98 hours)", "protocol": "Calvaria from 4-day old neonatal CD-1 mice (pregnant mice received from Charles River Laboratories) were trimmed with fine-tipped scissors to leave the parietal regions, including the sagittal suture. These trimmed bones were placed singly per well into 6-well culture cluster plates (Costar) with 1 mL/well of growth medium, Basel Medium (Eagle's with Earle's salts (GIBCO BRL, Gaithersburg, Md.)) containing 4.5 g/L glucose, 0.29 mg/mL L-glutamine, 1 mM sodium pyruvate, 15% heat-inactivated horse serum, antibiotics (penicillin-G 50 μg/mL, streptomycin 50 μg/mL, and neomycin 100 μg/mL) and containing 5 nM parathyroid hormone (PTH) 1-34 (Sigma), and rocked gently (RedRocker™) at 37° C. in a 5% CO2 humidified incubator for 17.5 hours preincubation. The concentration of PTH was chosen to insure maximum resorption. Calvaria designated as controls were pre-incubated in media without PTH.\nFollowing preincubation, medium was removed and replaced with 1 mL/well of growth medium, as above, containing 20 or 30 μg/mL of the calcitonin mimetic 850-0231 in DMSO (final assay concentration of DMSO less than or equal to 1%), and compared with human calcitonin (hCT) tested at 0.5, 1.0, 5.0, […] All control wells contained a final assay concentration of DMSO equal to that present in the calcitonin mimetic treated wells.\nFive bones were included in each sample group. Bones were incubated for a total of 98 hours. Time points were taken at 4, 8, 11, 24, 50.5, 72.5 and 98 hours. At each time point the media containing PTH was removed and fresh dilutions of compound in media were added to the calvaria. After the media was removed, total calcium measurements were made using a Nova 7/7+7 Electrolyte Analyzed (Nova Biomedical) according to the manufacturer's specifications. Induction of bone resorption by PTH is seen as an increase in the concentration of calcium in the growth medium due to degradation of the bone matrix.\nA second calvaria bone resorption/escape assay was performed as described above with time points at 4, 8, 12, 16, 24, 49 and 73 hours. […] Histology was done on the PTH-treated and the 30 μg/mL calcitonin mimetic-treated calvaria.\nA third calvaria bone resorption/escape assay was performed as described above with the following modifications. The calcitonin mimetic was tested at 5, 10 and 20 μg/mL. PTH was used at 10 nM to insure maximal resorption, hCT was tested at 2 nM and 8 nM and sCT was not included. Calvaria were pretreated with PTH for 19.75 hours. BrdU (bromodeoxyuridine, final concentration 10 μM) was added to the growth media for the final 17.5 hours, to identify proliferating cells. The lack of toxicity of 850-0231 will be verified by quartitating the number of proliferating BudU cells in histological sections of the calvaria. Time points were taken at 4, 8, 11, 24.5, 48 and 77 hours. A Novo CRT 10+ electrolyte analyzer (Nova Biomedical) was used to analyze the time point samples.\nAt the final time point, visual observations were made and photos taken to note the extent of resorption, and migration from the calvarial cells as a measure of toxicity. Again, human calcitonin lost its inhibitory effect between hours 11 and 24 (Table 5). The calvaria treated with the mimetic at 5 and 10 μg/mL also lost inhibitory effect between 11 and 24 hours."}, "[2]": {"test": "Induction of hypocalcemia in rats", "assay_type": "in vivo", "conditions": "weanling male rats, tail vein, 0.5, 2.5, 5, 50 and 100 ng/rat, one hour", "protocol": "This assay is based on the in vivo acute effect of calcitonin on osteoclasts, which causes rapid retraction of osteoclass from bone surface (typically within 30 minutes) and which results in decreased bone resorption. See Mills, et al., in Endocrinology 1971—Proceedings of the Third International Symposium, Taylor (ed), Heinemann Medical, London, pp. 79-88 (1972) and Singer, et al., Clin. Endocrinol. 5(Supp):333s-340s (1976); the disclosures of which are incorporated herein by reference. The assay method was modified from the method described by Sturtridge and Kumar, Lancet 545:725-6, 1968, the disclosure of which is incorporated herein by reference.\nFor the assay of hypocalcemic activity, weanling male Holtzman Sprague-Dawley rats (22 days old) are infused with vehicle (PBS with 1 mM HCl and 0.1% BSA), calcitonin or calcitonin mimetics through the tail vein. One hour later, blood samples are collected by orbital sinus puncture to determine serum levels of calcium. A decrease in serum calcium indicates a hypocalcemic response. The hypocalcemic response is dose-dependent as determined using salmon calcitonin (0.5, 2.5, 5, 50 and 100 ng/rat) in this model."}, "[3]": {"conditions": "TPTX rats, co-administration with PTH, two days; cited from earlier work"}, "[4]": {"tested_on": "osteoclasts in PTH-treated mouse calvariae", "test": "Calvaria histology: osteoclast number and size", "assay_type": "cell-based", "conditions": "PTH 1-34 treated mouse calvariae", "source_text": "To confirm the findings in the calvarial bone resorption assay employing calcium release from culture mouse calvariae, selected bones were fixed in 10% neutral buffered formalin and demineralized in 5% formic acid with 5% formalin. The bones were dehydrated through an ascending series of ethanol concentrations, infiltrated in glycol methacrylate, and embedded using a JB-4 embedding kit (PolySciences, warrington, Pa.) (Liu et al., J. Bone Mineral Res. 5:973-82 (1990)). Cross sections of calvariae cut at 5 μm were obtained and stained for tartrate-resistant acid phosphatase (TRAP) activity and counterstained with merhyl green and thionin for cell morphology (Laiu et al., supra). Osteociasts were identified by TRAP stain, multinucleation, large cell size, and irregular cell shape. The number of osteoclasts were counted from endocranial and ectocranial bone surfaces and expressed as number/mm perimeter. The size of all the osteoclasts counted was also measured using a Bone Morphometry program (Liu et al., supra; Bain, et al., J. Bone Miner. Res. 8:435-42 (1993)). […]\nCalcitonin mimetic compounds were evaluated in a similar fashion for their ability to suppress PTH-induced increases in osteoclast number and size. Cell toxicity (or death) was also evaluated by the appearance of pyknotic nuclei in a small number of bone cells. […]"}}}
{"substance": "salmon calcitonin", "values": [{"measurement": "time after which inhibitory effect on resorption was lost (escape)", "setting": "[1]; first assay, PTH 5 nM", "value": "approximately 24 hours"}, {"measurement": "Cumulative Total Calcium", "setting": "[1]; first assay, PTH 5 nM, sCT 0.2 nM, 4 hours", "value": 0.10, "unit": "mg %"}, {"measurement": "Cumulative Total Calcium", "setting": "[1]; first assay, PTH 5 nM, sCT 0.2 nM, 8 hours", "value": 0.18, "unit": "mg %"}, {"measurement": "Cumulative Total Calcium", "setting": "[1]; first assay, PTH 5 nM, sCT 0.2 nM, 11 hours", "value": 0.34, "unit": "mg %"}, {"measurement": "Cumulative Total Calcium", "setting": "[1]; first assay, PTH 5 nM, sCT 0.2 nM, 24 hours", "value": 1.76, "unit": "mg %"}, {"measurement": "Cumulative Total Calcium", "setting": "[1]; first assay, PTH 5 nM, sCT 0.2 nM, 50.5 hours", "value": 6.12, "unit": "mg %"}, {"measurement": "Cumulative Total Calcium", "setting": "[1]; first assay, PTH 5 nM, sCT 0.2 nM, 72.5 hours", "value": 9.88, "unit": "mg %"}, {"measurement": "Cumulative Total Calcium", "setting": "[1]; first assay, PTH 5 nM, sCT 0.2 nM, 98 hours", "value": 13.22, "unit": "mg %"}, {"measurement": "visual observation of the calvaria (resorption)", "setting": "[1]; first assay", "value": "less resorption"}, {"measurement": "Cumulative Total Calcium", "setting": "[1]; second assay, PTH 5 nM, sCT 1 nM, 4 hours", "value": "−0.02", "unit": "mg %"}, {"measurement": "Cumulative Total Calcium", "setting": "[1]; second assay, PTH 5 nM, sCT 1 nM, 8 hours", "value": "−0.16", "unit": "mg %"}, {"measurement": "Cumulative Total Calcium", "setting": "[1]; second assay, PTH 5 nM, sCT 1 nM, 12 hours", "value": "−0.20", "unit": "mg %"}, {"measurement": "Cumulative Total Calcium", "setting": "[1]; second assay, PTH 5 nM, sCT 1 nM, 16 hours", "value": 0.08, "unit": "mg %"}, {"measurement": "Cumulative Total Calcium", "setting": "[1]; second assay, PTH 5 nM, sCT 1 nM, 24 hours", "value": 0.92, "unit": "mg %"}, {"measurement": "Cumulative Total Calcium", "setting": "[1]; second assay, PTH 5 nM, sCT 1 nM, 49 hours", "value": 6.02, "unit": "mg %"}, {"measurement": "Cumulative Total Calcium", "setting": "[1]; second assay, PTH 5 nM, sCT 1 nM, 73 hours", "value": 11.56, "unit": "mg %"}, {"measurement": "hypocalcemic response (decrease in serum calcium)", "setting": "[2]", "value": "dose-dependent"}, {"measurement": "PTH-induced serum, bone and kidney changes", "setting": "[3]", "value": "attenuated"}]}
{"substance": "human calcitonin", "values": [{"measurement": "PTH-induced increase in number and size of osteoclasts", "setting": "[4]", "value": "suppressed"}, {"measurement": "time after which inhibitory effect on resorption was lost (escape)", "setting": "[1]; first assay, PTH 5 nM", "value": "approximately 24 hours"}, {"measurement": "Cumulative Total Calcium", "setting": "[1]; first assay, PTH 5 nM, hCT 10 nM, 4 hours", "value": 0.02, "unit": "mg %"}, {"measurement": "Cumulative Total Calcium", "setting": "[1]; first assay, PTH 5 nM, hCT 10 nM, 8 hours", "value": 0.02, "unit": "mg %"}, {"measurement": "Cumulative Total Calcium", "setting": "[1]; first assay, PTH 5 nM, hCT 10 nM, 11 hours", "value": "−0.02", "unit": "mg %"}, {"measurement": "Cumulative Total Calcium", "setting": "[1]; first assay, PTH 5 nM, hCT 10 nM, 24 hours", "value": 0.98, "unit": "mg %"}, {"measurement": "Cumulative Total Calcium", "setting": "[1]; first assay, PTH 5 nM, hCT 10 nM, 50.5 hours", "value": 4.96, "unit": "mg %"}, {"measurement": "Cumulative Total Calcium", "setting": "[1]; first assay, PTH 5 nM, hCT 10 nM, 72.5 hours", "value": 8.24, "unit": "mg %"}, {"measurement": "Cumulative Total Calcium", "setting": "[1]; first assay, PTH 5 nM, hCT 10 nM, 98 hours", "value": 12.26, "unit": "mg %"}, {"measurement": "visual observation of the calvaria (resorption)", "setting": "[1]; first assay", "value": "less resorption"}, {"measurement": "Cumulative Total Calcium", "setting": "[1]; second assay, PTH 5 nM, hCT 10 nM, 4 hours", "value": 0.10, "unit": "mg %"}, {"measurement": "Cumulative Total Calcium", "setting": "[1]; second assay, PTH 5 nM, hCT 10 nM, 8 hours", "value": "−0.04", "unit": "mg %"}, {"measurement": "Cumulative Total Calcium", "setting": "[1]; second assay, PTH 5 nM, hCT 10 nM, 12 hours", "value": "−0.06", "unit": "mg %"}, {"measurement": "Cumulative Total Calcium", "setting": "[1]; second assay, PTH 5 nM, hCT 10 nM, 16 hours", "value": 0.12, "unit": "mg %"}, {"measurement": "Cumulative Total Calcium", "setting": "[1]; second assay, PTH 5 nM, hCT 10 nM, 24 hours", "value": 0.92, "unit": "mg %"}, {"measurement": "Cumulative Total Calcium", "setting": "[1]; second assay, PTH 5 nM, hCT 10 nM, 49 hours", "value": 5.70, "unit": "mg %"}, {"measurement": "Cumulative Total Calcium", "setting": "[1]; second assay, PTH 5 nM, hCT 10 nM, 73 hours", "value": 10.60, "unit": "mg %"}, {"measurement": "Cumulative Total Calcium", "setting": "[1]; third assay, PTH 10 nM, hCT 2 nM, 4 hours", "value": 0.01, "unit": "mg %"}, {"measurement": "Cumulative Total Calcium", "setting": "[1]; third assay, PTH 10 nM, hCT 2 nM, 8 hours", "value": 0.10, "unit": "mg %"}, {"measurement": "Cumulative Total Calcium", "setting": "[1]; third assay, PTH 10 nM, hCT 2 nM, 11 hours", "value": 0.10, "unit": "mg %"}, {"measurement": "Cumulative Total Calcium", "setting": "[1]; third assay, PTH 10 nM, hCT 2 nM, 24.5 hours", "value": 1.22, "unit": "mg %"}, {"measurement": "Cumulative Total Calcium", "setting": "[1]; third assay, PTH 10 nM, hCT 2 nM, 48 hours", "value": 4.88, "unit": "mg %"}, {"measurement": "Cumulative Total Calcium", "setting": "[1]; third assay, PTH 10 nM, hCT 2 nM, 77 hours", "value": 9.55, "unit": "mg %"}, {"measurement": "Cumulative Total Calcium", "setting": "[1]; third assay, PTH 10 nM, hCT 8 nM, 4 hours", "value": 0.08, "unit": "mg %"}, {"measurement": "Cumulative Total Calcium", "setting": "[1]; third assay, PTH 10 nM, hCT 8 nM, 8 hours", "value": 0.24, "unit": "mg %"}, {"measurement": "Cumulative Total Calcium", "setting": "[1]; third assay, PTH 10 nM, hCT 8 nM, 11 hours", "value": 0.27, "unit": "mg %"}, {"measurement": "Cumulative Total Calcium", "setting": "[1]; third assay, PTH 10 nM, hCT 8 nM, 24.5 hours", "value": 1.45, "unit": "mg %"}, {"measurement": "Cumulative Total Calcium", "setting": "[1]; third assay, PTH 10 nM, hCT 8 nM, 48 hours", "value": 4.60, "unit": "mg %"}, {"measurement": "Cumulative Total Calcium", "setting": "[1]; third assay, PTH 10 nM, hCT 8 nM, 77 hours", "value": 9.74, "unit": "mg %"}]}
